Data on seven cell lines can be found in the supplement of paper PMC10307832.

What all share (experiment): relative viability (nuclei count vs DMSO), 5 days (fraction); higher = more cells survive
Compound in the assay “Alisertib + OSI-027”: COc1cc(Nc2ncc3c(n2)-c2ccc(Cl)cc2C(c2c(F)cccc2OC)=NC3)ccc1C(=O)O [Alisertib] + COc1cccc2cc(-c3nc([C@H]4CC[C@H](C(=O)O)CC4)n4ncnc(N)c34)[nH]c12 [OSI-027] (partner 0.5 µM)
The gist of the method:
(§1)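 Lung cancer cell lines were seeded in 1536-well plates and dosed by pin tool the next day, with either a single drug or a fixed anchor-drug dose combined with five library-drug doses (not always all listed) spaced in √10 steps. Five days later, one step fixed the cells and stained their nuclei (final 0.05% Triton X-100, 1% formaldehyde, 1 ug/ml Hoechst), and nuclei were counted on 4× images. Relative viability is the nuclei count in treated wells divided by the count in vehicle wells, and each value is the median of duplicate plates.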

Compound in the assay “Alisertib + Crizotinib”: COc1cc(Nc2ncc3c(n2)-c2ccc(Cl)cc2C(c2c(F)cccc2OC)=NC3)ccc1C(=O)O [Alisertib] + C[C@@H](Oc1cc(-c2cnn(C3CCNCC3)c2)cnc1N)c1c(Cl)ccc(F)c1Cl [Crizotinib] (partner 1 µM)
The procedure, abridged: as §1

Compound in the assay “Alisertib + Linsitinib”: COc1cc(Nc2ncc3c(n2)-c2ccc(Cl)cc2C(c2c(F)cccc2OC)=NC3)ccc1C(=O)O [Alisertib] + C[C@]1(O)C[C@@H](c2nc(-c3ccc4ccc(-c5ccccc5)nc4c3)c3c(N)nccn32)C1 [Linsitinib] (partner 1 µM)
The procedure, abridged:
as §1

Compound in the assay “Alisertib + Tozasertib”: COc1cc(Nc2ncc3c(n2)-c2ccc(Cl)cc2C(c2c(F)cccc2OC)=NC3)ccc1C(=O)O [Alisertib] + Cc1cc(Nc2cc(N3CCN(C)CC3)nc(Sc3ccc(NC(=O)C4CC4)cc3)n2)n[nH]1 [Tozasertib] (partner 0.1 µM)
The gist of the method:
as §1

As for ABC-1, the relative viability with Alisertib + OSI-027 (first compound 0.005 µM) was found to be 0.42; with Alisertib + OSI-027 (first compound 0.01581 µM), 0.375; with Alisertib + OSI-027 (first compound 0.05 µM) it was 0.339; in the assay with Alisertib + OSI-027 (first compound 0.1581 µM) it was 0.195; with Alisertib + OSI-027 (first compound 0.5 µM), 0.185; with Alisertib + Crizotinib (first compound 0.005 µM), 1.1. In addition, the relative viability in the assay with Alisertib + Crizotinib (first compound 0.01581 µM) came to 0.551; in the assay with Alisertib + Crizotinib (first compound 0.05 µM), 0.363; with Alisertib + Crizotinib (first compound 0.1581 µM), 0.318; with Alisertib + Crizotinib (first compound 0.5 µM), 0.23; with Alisertib + Linsitinib (first compound 0.005 µM), 0.661; in the assay with Alisertib + Linsitinib (first compound 0.01581 µM), 0.707. Further, the relative viability came out at 0.584 with Alisertib + Linsitinib (first compound 0.05 µM); 0.416 in the assay with Alisertib + Linsitinib (first compound 0.1581 µM); 0.204 with Alisertib + Linsitinib (first compound 0.5 µM); 0.178 with Alisertib + Tozasertib (first compound 0.005 µM); 0.233 in the assay with Alisertib + Tozasertib (first compound 0.01581 µM); 0.256 with Alisertib + Tozasertib (first compound 0.05 µM). Further, the relative viability is 0.203 in the assay with Alisertib + Tozasertib (first compound 0.1581 µM) and 0.196 with Alisertib + Tozasertib (first compound 0.5 µM).

HCC-15: the relative viability turned out to be 0.578 in the assay with Alisertib + OSI-027 (first compound 0.005 µM); 0.504 with Alisertib + OSI-027 (first compound 0.01581 µM); 0.227 in the assay with Alisertib + OSI-027 (first compound 0.05 µM); 0.118 in the assay with Alisertib + OSI-027 (first compound 0.1581 µM); 0.12 with Alisertib + OSI-027 (first compound 0.5 µM); 0.808 in the assay with Alisertib + Crizotinib (first compound 0.005 µM). Further, the relative viability with Alisertib + Crizotinib (first compound 0.01581 µM) worked out at 0.655; with Alisertib + Crizotinib (first compound 0.05 µM), 0.219; in the assay with Alisertib + Crizotinib (first compound 0.1581 µM) it was 0.115; with Alisertib + Crizotinib (first compound 0.5 µM), 0.0945; in the assay with Alisertib + Linsitinib (first compound 0.005 µM), 0.863; in the assay with Alisertib + Linsitinib (first compound 0.01581 µM), 0.725. Also, the relative viability in the assay with Alisertib + Linsitinib (first compound 0.05 µM) was determined as 0.275; with Alisertib + Linsitinib (first compound 0.1581 µM), 0.159; in the assay with Alisertib + Linsitinib (first compound 0.5 µM), 0.113; with Alisertib + Tozasertib (first compound 0.005 µM), 0.352; in the assay with Alisertib + Tozasertib (first compound 0.01581 µM), 0.154; with Alisertib + Tozasertib (first compound 0.05 µM) it was 0.163. Further, the relative viability was 0.144 with Alisertib + Tozasertib (first compound 0.1581 µM) and 0.0961 in the assay with Alisertib + Tozasertib (first compound 0.5 µM).

With RERF-LC-KJ, the relative viability in the assay with Alisertib + OSI-027 (first compound 0.005 µM) stood at 0.539; with Alisertib + OSI-027 (first compound 0.01581 µM), 0.468; in the assay with Alisertib + OSI-027 (first compound 0.05 µM), 0.354; with Alisertib + OSI-027 (first compound 0.1581 µM), 0.181; with Alisertib + OSI-027 (first compound 0.5 µM), 0.191; with Alisertib + Crizotinib (first compound 0.005 µM) it was 0.831. Further, the relative viability with Alisertib + Crizotinib (first compound 0.01581 µM) is 0.662; in the assay with Alisertib + Crizotinib (first compound 0.05 µM) it was 0.692; with Alisertib + Crizotinib (first compound 0.1581 µM), 0.206; with Alisertib + Crizotinib (first compound 0.5 µM), 0.196; in the assay with Alisertib + Linsitinib (first compound 0.005 µM), 0.92; in the assay with Alisertib + Linsitinib (first compound 0.01581 µM), 0.789. The relative viability with Alisertib + Linsitinib (first compound 0.05 µM) was found to be 0.581; with Alisertib + Linsitinib (first compound 0.1581 µM), 0.207; in the assay with Alisertib + Linsitinib (first compound 0.5 µM) it was 0.227; with Alisertib + Tozasertib (first compound 0.005 µM) it was 0.511; with Alisertib + Tozasertib (first compound 0.01581 µM), 0.386; with Alisertib + Tozasertib (first compound 0.05 µM), 0.253. Moreover, the relative viability amounted to 0.27 with Alisertib + Tozasertib (first compound 0.1581 µM) and 0.218 in the assay with Alisertib + Tozasertib (first compound 0.5 µM).

Consider NCI-H1993, for which the relative viability with Alisertib + OSI-027 (first compound 0.005 µM) was found to be 0.55; with Alisertib + OSI-027 (first compound 0.01581 µM), 0.46; with Alisertib + OSI-027 (first compound 0.05 µM), 0.435; with Alisertib + OSI-027 (first compound 0.1581 µM), 0.547; with Alisertib + OSI-027 (first compound 0.5 µM), 0.512; with Alisertib + Crizotinib (first compound 0.005 µM), 0.564. Besides, the relative viability with Alisertib + Crizotinib (first compound 0.01581 µM) is 0.744; in the assay with Alisertib + Crizotinib (first compound 0.05 µM), 0.6; with Alisertib + Crizotinib (first compound 0.1581 µM), 0.573; with Alisertib + Crizotinib (first compound 0.5 µM) it was 0.527; in the assay with Alisertib + Linsitinib (first compound 0.005 µM) it was 0.685; in the assay with Alisertib + Linsitinib (first compound 0.01581 µM), 0.659. In addition, the relative viability was 0.606 in the assay with Alisertib + Linsitinib (first compound 0.05 µM); 0.613 with Alisertib + Linsitinib (first compound 0.1581 µM); 0.578 with Alisertib + Linsitinib (first compound 0.5 µM); 0.572 with Alisertib + Tozasertib (first compound 0.005 µM); 0.542 in the assay with Alisertib + Tozasertib (first compound 0.01581 µM); 0.536 with Alisertib + Tozasertib (first compound 0.05 µM). Besides, the relative viability with Alisertib + Tozasertib (first compound 0.1581 µM) stood at 0.524; in the assay with Alisertib + Tozasertib (first compound 0.5 µM), 0.512.

Take NCI-H358: the relative viability in the assay with Alisertib + OSI-027 (first compound 0.005 µM) was 0.716; with Alisertib + OSI-027 (first compound 0.01581 µM) it was 0.507; with Alisertib + OSI-027 (first compound 0.05 µM) it was 0.144; with Alisertib + OSI-027 (first compound 0.1581 µM), 0.0797; with Alisertib + OSI-027 (first compound 0.5 µM), 0.0701; with Alisertib + Crizotinib (first compound 0.005 µM), 0.632. The relative viability came to 0.358 in the assay with Alisertib + Crizotinib (first compound 0.01581 µM); 0.193 with Alisertib + Crizotinib (first compound 0.05 µM); 0.188 with Alisertib + Crizotinib (first compound 0.1581 µM); 0.186 with Alisertib + Crizotinib (first compound 0.5 µM); 0.735 in the assay with Alisertib + Linsitinib (first compound 0.005 µM); 0.486 in the assay with Alisertib + Linsitinib (first compound 0.01581 µM). Further, the relative viability was determined as 0.202 with Alisertib + Linsitinib (first compound 0.05 µM); 0.159 with Alisertib + Linsitinib (first compound 0.1581 µM); 0.14 with Alisertib + Linsitinib (first compound 0.5 µM); 0.093 with Alisertib + Tozasertib (first compound 0.005 µM); 0.121 with Alisertib + Tozasertib (first compound 0.01581 µM); 0.0917 in the assay with Alisertib + Tozasertib (first compound 0.05 µM). Further, the figures for the relative viability with Alisertib + Tozasertib (first compound 0.1581 µM) and with Alisertib + Tozasertib (first compound 0.5 µM) were 0.0959 and 0.079, respectively.

For the cell line NCI-H1915, the relative viability in the assay with Alisertib + OSI-027 (first compound 0.005 µM) came to 0.507; with Alisertib + OSI-027 (first compound 0.01581 µM), 0.473; in the assay with Alisertib + OSI-027 (first compound 0.05 µM) it was 0.374; with Alisertib + OSI-027 (first compound 0.1581 µM), 0.278; with Alisertib + OSI-027 (first compound 0.5 µM) it was 0.238; with Alisertib + Crizotinib (first compound 0.005 µM), 0.777. The relative viability with Alisertib + Crizotinib (first compound 0.01581 µM) was 0.721; with Alisertib + Crizotinib (first compound 0.05 µM), 0.307; in the assay with Alisertib + Crizotinib (first compound 0.1581 µM) it was 0.317; with Alisertib + Crizotinib (first compound 0.5 µM) it was 0.192; with Alisertib + Linsitinib (first compound 0.005 µM), 0.984; with Alisertib + Linsitinib (first compound 0.01581 µM), 0.948. For the same cell line, the relative viability with Alisertib + Linsitinib (first compound 0.05 µM) was determined as 0.504; with Alisertib + Linsitinib (first compound 0.1581 µM), 0.354; with Alisertib + Linsitinib (first compound 0.5 µM), 0.224; in the assay with Alisertib + Tozasertib (first compound 0.005 µM), 0.404; with Alisertib + Tozasertib (first compound 0.01581 µM), 0.272; in the assay with Alisertib + Tozasertib (first compound 0.05 µM) it was 0.241. Also, the relative viability was 0.193 with Alisertib + Tozasertib (first compound 0.1581 µM) and 0.179 in the assay with Alisertib + Tozasertib (first compound 0.5 µM).

In the case of SK-LU-1, the relative viability was determined as 0.369 in the assay with Alisertib + OSI-027 (first compound 0.005 µM); 0.233 with Alisertib + OSI-027 (first compound 0.01581 µM); 0.182 with Alisertib + OSI-027 (first compound 0.05 µM); 0.18 in the assay with Alisertib + OSI-027 (first compound 0.1581 µM); 0.163 with Alisertib + OSI-027 (first compound 0.5 µM); 0.775 with Alisertib + Crizotinib (first compound 0.005 µM). In addition, the relative viability stood at 0.628 with Alisertib + Crizotinib (first compound 0.01581 µM); 0.389 in the assay with Alisertib + Crizotinib (first compound 0.05 µM); 0.362 in the assay with Alisertib + Crizotinib (first compound 0.1581 µM); 0.239 in the assay with Alisertib + Crizotinib (first compound 0.5 µM); 1.07 in the assay with Alisertib + Linsitinib (first compound 0.005 µM); 0.924 with Alisertib + Linsitinib (first compound 0.01581 µM). In addition, the relative viability was found to be 0.361 with Alisertib + Linsitinib (first compound 0.05 µM); 0.324 in the assay with Alisertib + Linsitinib (first compound 0.1581 µM); 0.24 with Alisertib + Linsitinib (first compound 0.5 µM); 0.303 with Alisertib + Tozasertib (first compound 0.005 µM); 0.286 with Alisertib + Tozasertib (first compound 0.01581 µM); 0.219 with Alisertib + Tozasertib (first compound 0.05 µM). Besides, the relative viability with Alisertib + Tozasertib (first compound 0.1581 µM) is 0.224; in the assay with Alisertib + Tozasertib (first compound 0.5 µM), 0.205.
